IC50 data for 20 compounds are collected here from patent US20250145589A1, “PYRIDINE DERIVATIVE AND USE THEREOF” (SICHUAN HUIYU PHARMACEUTICAL CO., LTD., priority 2021, published 2025).

As usually defined, the IC50 is the midpoint of a concentration-inhibition curve.

Where two headings read alike, the source gives them in different places.

Experiment [1] concerns the target PI3Kδ (Homo sapiens (Human), UniProt O00329). Kind of experiment: Inhibition of PI3Kδ efficacy assay (ADP-Glo kinase assay). Format: biochemical. As to conditions: read-out: PI3Kδ inhibitory activity (IC50). The procedure: Test Example 2: Inhibition of PI3Kδ Efficacy assay The ADP-Glo™ kinase assay was used to assess the inhibition of PI3Kδ with our compounds. The utilized proteins and assay reagents were obtained from the ADP-Glo™ Kinase Assay Kit (Promega). Initially, a 2 mM stock solution of the test compound (dissolved in DMSO) was serially diluted in five-fold concentrations using DMSO to obtain eight working solutions 1 (200×) Subsequently, each of the eight working solutions 1 was further diluted in a 20-fold gradient by adding 5 μL into 95 μL of ddH2O, resulting in eight working solutions 2 (10×). […] Subsequently, 2 μL of 2.5×PI and ATP solution mixture were added to each well, mixed, and incubated at RT for 60 minutes. Then, 5 μL of ADP-Glo (containing 10 mM MgCl2) reagent was added to each well, mixed, and incubated at RT for 40 minutes. Finally, 10 μL of the Kinase Detection Reagent was added to each well, mixed, and incubated at RT for 40 minutes. Luminescence values were recorded using a multi-mode microplate reader with luminescence channel settings, and the inhibitory rate was calculated using the following formula: [formula] Data were analyzed using GraphPad Prism with log(inhibitor) vs. response—Variable Slope(four parameters) fitting calculations for IC50 values.
(ADP-Glo first removes unused ATP, then detects ADP through luciferase.)

The subject of experiment [2] is NCI-H358 cells (KRAS G12C mutant). Kind of experiment: NCI-H358 cell proliferation inhibition (CellTiter-Glo). As to conditions: H358 cells (G12C mutation), 3 days, Table 6, read-out: NCI-H358 (IC50). Format: cell-based. A general note: In ATP-based viability assays light output follows the ATP content of the culture.
Experiment [3] concerns the target PI3Kα (Homo sapiens (Human), UniProt P42336). The experiment in a line: Inhibition of PI3Kα efficacy assay (ADP-Glo kinase assay). Format: biochemical. The conditions noted are these: read-out: PI3Kα inhibitory activity (IC50). The method, boiled down:
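ADP-Glo luminescent detection of ADP from PI3Kα acting on PI substrate with ATP, 60 min at RT; compounds in 8-point five-fold serial dilution from 2 mM DMSO stock. IC50 from four-parameter variable-slope fit.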

Chain of PI3Kδ (O00329 whole entry): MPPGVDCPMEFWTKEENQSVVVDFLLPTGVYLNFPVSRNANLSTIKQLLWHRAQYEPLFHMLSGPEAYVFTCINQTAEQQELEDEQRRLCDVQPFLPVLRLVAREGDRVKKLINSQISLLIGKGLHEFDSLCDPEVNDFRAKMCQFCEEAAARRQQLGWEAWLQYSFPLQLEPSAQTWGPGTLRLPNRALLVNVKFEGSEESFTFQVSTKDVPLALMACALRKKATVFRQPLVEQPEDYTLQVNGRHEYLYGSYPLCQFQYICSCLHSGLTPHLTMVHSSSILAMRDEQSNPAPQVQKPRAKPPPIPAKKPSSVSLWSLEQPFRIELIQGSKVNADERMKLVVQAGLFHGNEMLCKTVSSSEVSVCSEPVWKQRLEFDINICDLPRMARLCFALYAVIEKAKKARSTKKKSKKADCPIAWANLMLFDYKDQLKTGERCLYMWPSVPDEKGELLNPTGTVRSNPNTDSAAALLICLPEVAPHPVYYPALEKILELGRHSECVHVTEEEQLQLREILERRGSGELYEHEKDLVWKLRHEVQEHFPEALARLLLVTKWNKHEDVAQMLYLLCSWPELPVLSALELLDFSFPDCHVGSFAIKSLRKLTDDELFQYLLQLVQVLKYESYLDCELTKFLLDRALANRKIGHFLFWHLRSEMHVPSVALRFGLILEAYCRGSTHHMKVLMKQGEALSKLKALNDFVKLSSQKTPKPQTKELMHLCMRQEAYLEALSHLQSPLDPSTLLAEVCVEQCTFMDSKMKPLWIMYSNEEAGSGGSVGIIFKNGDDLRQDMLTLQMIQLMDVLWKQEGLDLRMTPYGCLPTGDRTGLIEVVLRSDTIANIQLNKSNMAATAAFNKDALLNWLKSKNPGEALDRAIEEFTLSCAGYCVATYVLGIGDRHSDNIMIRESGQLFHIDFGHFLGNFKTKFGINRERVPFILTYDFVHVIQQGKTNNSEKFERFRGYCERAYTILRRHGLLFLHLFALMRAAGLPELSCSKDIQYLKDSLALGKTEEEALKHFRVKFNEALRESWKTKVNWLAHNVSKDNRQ
Chain of PI3Kδ (P27986 whole entry partner): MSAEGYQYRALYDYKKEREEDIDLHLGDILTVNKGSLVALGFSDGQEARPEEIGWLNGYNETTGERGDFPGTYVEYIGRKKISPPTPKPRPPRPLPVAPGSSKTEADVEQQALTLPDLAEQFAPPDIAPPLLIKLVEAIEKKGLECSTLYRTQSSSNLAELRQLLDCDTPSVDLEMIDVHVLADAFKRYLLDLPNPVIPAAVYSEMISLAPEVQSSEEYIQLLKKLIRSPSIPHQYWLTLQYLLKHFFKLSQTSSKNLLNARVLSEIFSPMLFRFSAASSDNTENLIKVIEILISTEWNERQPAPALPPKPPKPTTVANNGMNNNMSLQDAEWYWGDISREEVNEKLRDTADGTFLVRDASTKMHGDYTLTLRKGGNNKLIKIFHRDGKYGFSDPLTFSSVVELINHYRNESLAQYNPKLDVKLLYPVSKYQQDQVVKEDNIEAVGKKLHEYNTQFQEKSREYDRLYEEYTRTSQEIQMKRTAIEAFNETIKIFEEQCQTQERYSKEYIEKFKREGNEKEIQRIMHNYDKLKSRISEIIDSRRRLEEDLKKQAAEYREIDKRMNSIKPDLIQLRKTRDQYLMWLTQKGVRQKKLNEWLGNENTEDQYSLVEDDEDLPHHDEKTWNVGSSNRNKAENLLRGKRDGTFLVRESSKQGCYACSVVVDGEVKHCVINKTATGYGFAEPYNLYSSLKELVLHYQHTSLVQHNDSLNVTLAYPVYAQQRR
Chain of PI3Kα (P42336 whole entry): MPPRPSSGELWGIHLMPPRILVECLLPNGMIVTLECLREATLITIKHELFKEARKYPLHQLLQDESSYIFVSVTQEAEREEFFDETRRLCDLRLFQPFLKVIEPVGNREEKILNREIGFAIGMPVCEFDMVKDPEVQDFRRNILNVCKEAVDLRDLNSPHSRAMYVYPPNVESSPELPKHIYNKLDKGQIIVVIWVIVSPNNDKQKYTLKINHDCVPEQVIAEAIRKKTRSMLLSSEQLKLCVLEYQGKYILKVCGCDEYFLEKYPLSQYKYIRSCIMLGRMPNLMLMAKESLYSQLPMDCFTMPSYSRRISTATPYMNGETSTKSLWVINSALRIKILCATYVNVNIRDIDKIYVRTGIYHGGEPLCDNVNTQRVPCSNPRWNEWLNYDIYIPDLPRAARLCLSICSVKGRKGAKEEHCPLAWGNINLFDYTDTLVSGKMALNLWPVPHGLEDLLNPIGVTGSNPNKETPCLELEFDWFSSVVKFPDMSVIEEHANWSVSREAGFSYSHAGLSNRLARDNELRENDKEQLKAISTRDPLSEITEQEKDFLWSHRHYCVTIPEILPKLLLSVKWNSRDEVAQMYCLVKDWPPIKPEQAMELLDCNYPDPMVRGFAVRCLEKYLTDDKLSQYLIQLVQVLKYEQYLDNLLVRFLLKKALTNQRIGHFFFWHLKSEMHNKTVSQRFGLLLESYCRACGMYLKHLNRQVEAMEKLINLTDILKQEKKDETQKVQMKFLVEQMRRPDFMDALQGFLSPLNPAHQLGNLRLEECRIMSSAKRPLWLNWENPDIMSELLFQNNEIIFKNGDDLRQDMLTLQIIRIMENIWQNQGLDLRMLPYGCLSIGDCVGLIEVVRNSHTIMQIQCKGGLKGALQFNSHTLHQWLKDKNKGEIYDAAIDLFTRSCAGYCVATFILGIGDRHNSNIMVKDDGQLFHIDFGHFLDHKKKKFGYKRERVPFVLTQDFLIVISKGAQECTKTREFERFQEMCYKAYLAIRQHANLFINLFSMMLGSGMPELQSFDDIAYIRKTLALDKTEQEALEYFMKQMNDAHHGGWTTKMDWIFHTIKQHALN
Chain of PI3Kα (P27986 whole entry partner): as the sequence (P27986 whole entry partner) above

`C=C(F)C(=O)N1CC2(CCN(c3ncnc4ccc(-c5cnc(OC)c(NS(=O)(=O)c6c(F)cccc6F)c5)cc34)CC2)C1` [Example 47, 2,6-difluoro-N-(5-(4-(2-(2-fluoroacryloyl)-2,7-diazaspiro[3.5]nonan-7-yl)quinazolin-6-yl)-2-methoxypyridin-3-yl) benzenesulfonamide]: the concentration for half-maximal inhibition (IC50) in experiment [1] (Table 2) stood at 25.2 nM; in experiment [2] (Homo sapiens, NCI-H358, 72 h) it was 34.3 nM; in experiment [3] (Table 2), 2.2 nM.

As for `C=C1CCN(C2CN(c3ncnc4ccc(-c5cnc(OC)c(NS(=O)(=O)c6ccc(F)cc6F)c5)cc34)C2)C1=O` [Example 125], the figures for the concentration for half-maximal inhibition (IC50) in experiment [1] (Table 2), in experiment [2] and in experiment [3] (Table 2) were 17 nM, 97.2 nM and 5 nM, respectively.

Take `C=C(F)C(=O)N1CCN(c2ncnc3ccc(-c4cnc(OC)c(NS(=O)(=O)c5c(F)cccc5F)c4)cc23)[C@@H](C)C1` [Example 45, (S)-2,6-difluoro-N-(5-(4-(4-(2-fluoroacryloyl)-2-methylpiperazin-1-yl)quinazolin-6-yl)-2-methoxypyridin-3-yl) benzenesulfonamide]: the IC50 in experiment [1] (Table 2) was determined as 38.6 nM; in experiment [2] (Homo sapiens, NCI-H358, 72 h), 164 nM; in experiment [3] (Table 2) it was 2.8 nM.

On to `C=C(F)C(=O)N1CCN(c2ncnc3ccc(-c4cnc(OC)c(NS(=O)(=O)c5c(F)cccc5F)c4)cc23)CC1` [Example 43, 2,6-difluoro-N-(5-(4-(4-(2-fluoroacryloyl)piperazin-1-yl)quinazolin-6-yl)-2-methoxypyridin-3-yl) benzenesulfonamide], for which the IC50 in experiment [1] (Table 2) was determined as 12.9 nM; in experiment [2] (Homo sapiens, NCI-H358, 72 h), 27.9 nM; in experiment [3] (Table 2), 2.5 nM.

Take `CC(=O)/C=C/C(=O)N1CCN(c2ncnc3ccc(-c4cnc(OC5CCCC5)c(NS(=O)(=O)c5ccc(F)cc5F)c4)cc23)CC1` [Example 107, (E)-N-(2-(cyclopentyloxy)-5-(4-(4-(4-oxopent-2-enoyl)piperazin-1-yl)quinazolin-6-yl)pyridin-3-yl)-2,4-difluorobenzenesulfonamide]: the IC50 in experiment [1] (Table 2) is 794 nM; in experiment [2] (Homo sapiens, NCI-H358, 72 h) it was 405 nM; in experiment [3] (Table 2), 126 nM.

As to `C=CC(=O)N1CCN(c2ncnc3ccc(-c4cnc(Cl)c(NS(=O)(=O)c5ccc(F)cc5F)c4)cc23)CC1` [Example 33, N-(5-(4-(4-acryloylpiperazin-1-yl)quinazolin-6-yl)-2-chloropyridin-3-yl)-2,4-difluorobenzenesulfonamide], the IC50 in experiment [1] (Table 1) worked out at 68.7 nM; in experiment [2] (Homo sapiens, NCI-H358, 72 h), 333 nM; in experiment [3] (Table 1), 12.6 nM.

As to `C=CC(=O)N1CC2(CCN(c3ncnc4ccc(-c5cnc(OC)c(NS(=O)(=O)c6ccc(F)cc6F)c5)cc34)CC2)C1` [Example 18, N-(5-(4-(2-acryloyl-2,7-diazaspiro[3.5]nonan-7-yl)quinazolin-6-yl)-2-methoxypyridin-3-yl)-2,4-difluorobenzenesulfonamide], the concentration for half-maximal inhibition (IC50) in experiment [1] (Table 1) amounted to 12.5 nM; in experiment [2] (Homo sapiens, NCI-H358, 72 h), 60.1 nM; in experiment [3] (Table 1), 1.2 nM.

On to `C=CC(=O)N1CC(N2CCN(c3ncnc4ccc(-c5cnc(OC)c(NS(=O)(=O)c6ccc(F)cc6F)c5)cc34)CC2)C1` [Example 55, N-(5-(4-(4-(1-acryloylazetidin-3-yl)piperazin-1-yl)quinazolin-6-yl)-2-methoxypyridin-3-yl)-2,4-difluorobenzene-sulfonamide], for which the IC50 is 43.5 nM in experiment [1] (Table 2); 39.5 nM in experiment [2] (Homo sapiens, NCI-H358, 72 h); 1.2 nM in experiment [3] (Table 2).

For `COc1ncc(-c2ccc3ncnc(N4CCN(C(=O)C5=CC(=O)CCC5)CC4)c3c2)cc1NS(=O)(=O)c1ccc(F)cc1F` [Example 72, 2,4-difluoro-N-(2-methoxy-5-(4-(4-(3-oxocyclohex-1-ene-1-carbonyl)piperazin-1-yl)quinazolin-6-yl)pyridin-3-yl)benzenesulfonamide], the concentration for half-maximal inhibition (IC50) came to 24.3 nM in experiment [1] (Table 2); 14.4 nM in experiment [2] (Homo sapiens, NCI-H358, 72 h); 5.9 nM in experiment [3] (Table 2).

Regarding `COc1ncc(-c2ccc3ncnc(N4CCN(C(=O)C5OC5C(C)=O)CC4)c3c2)cc1NS(=O)(=O)c1ccc(F)cc1F` (stereo not drawn) [Example 127, N-(5-(4-(4-(3-acetyloxirane-2-carbonyl)piperazin-1-yl)quinazolin-6-yl)-2-methoxypyridin-3-yl)-2,4-difluorobenzenesulfonamide], the IC50 amounted to 31.7 nM in experiment [1] (Table 2); 22.2 nM in experiment [2] (Homo sapiens, NCI-H358, 72 h); 1.9 nM in experiment [3] (Table 2).

Turning to `COc1ncc(-c2ccc3ncnc(N4CCN(C(=O)/C=C/C(C)=O)[C@@H](CC#N)C4)c3c2)cc1NS(=O)(=O)c1ccc(F)cc1F` [Example 112, (S,E)-N-(5-(4-(3-(cyanomethyl)-4-(4-oxopent-2-enoyl)piperazin-1-yl)quinazolin-6-yl)-2-methoxypyridin-3-yl)-2,4-difluorobenzenesulfonamide], the IC50 was 23.9 nM in experiment [1] (Table 2); 72.2 nM in experiment [2] (Homo sapiens, NCI-H358, 72 h); 5 nM in experiment [3] (Table 2).

With `C=C(F)C(=O)N1CCN(c2ncnc3ccc(-c4cnc(OC)c(NS(=O)(=O)c5ccc(F)cn5)c4)cc23)CC1` [Example 120, 5-fluoro-N-(5-(4-(4-(2-fluoroacryloyl)piperazin-1-yl)quinazolin-6-yl)-2-methoxypyridin-3-yl)pyridine-2-sulfonamide], the IC50 in experiment [1] (Table 2) amounted to 11.5 nM; in experiment [2] (Homo sapiens, NCI-H358, 72 h), 94.9 nM; in experiment [3] (Table 2) it was 3 nM.

Regarding `COc1ncc(-c2ccc3ncnc(NC4CCN(C(=O)/C=C/C(C)=O)CC4)c3c2)cc1NS(=O)(=O)c1ccc(F)cc1F` [Example 130, (E)-2,4-difluoro-N-(2-methoxy-5-(4-((1-(4-oxopent-2-enoyl)piperidin-4-yl)amino)quinazolin-6-yl)pyridin-3-yl)benzenesulfonamide], the half-maximal inhibitory concentration (IC50) in experiment [1] (Table 2) came to 15.2 nM; in experiment [2] (Homo sapiens, NCI-H358, 72 h), 442 nM; in experiment [3] (Table 2), 2.6 nM.

Take `C=C(F)C(=O)N1C[C@H](C)N(c2ncnc3ccc(-c4cnc(OC)c(NS(=O)(=O)c5ccc(F)cc5F)c4)cc23)C[C@H]1C` [Example 68, 2,4-difluoro-N-(5-(4-((2S,5R)-4-(2-fluoroacryloyl)-2,5-dimethyl-piperazin-1-yl)quinazolin-6-yl)-2-methoxy-pyridin-3-yl) benzene-sulfonamide]: the half-inhibitory concentration (IC50) turned out to be 27.7 nM in experiment [1] (Table 2); 861 nM in experiment [2] (Homo sapiens, NCI-H358, 72 h); 1.4 nM in experiment [3] (Table 2).

As to `C=CC(=O)N1CCN(c2ncnc3ccc(-c4cnc(OC)c(NS(=O)(=O)c5ccc(F)cc5F)c4)cc23)C[C@@H]1CC#N` [Example 114, (S)-N-(5-(4-(4-acryloyl-3-(cyanomethyl)piperazin-1-yl)quinazolin-6-yl)-2-methoxypyridin-3-yl)-2,4-difluorobenzenesulfonamide], the IC50 in experiment [1] (Table 2) was determined as 28.5 nM; in experiment [2] (Homo sapiens, NCI-H358, 72 h) it was 34.6 nM; in experiment [3] (Table 2), 1.4 nM.

For the compound `C=CC(=O)N1CCN(c2ncnc3ccc(-c4cnc(OC)c(NS(=O)(=O)c5c(F)cccc5F)c4)cc23)CC1` [Example 21, N-(5-(4-(4-acryloylpiperazin-1-yl)quinazolin-6-yl)-2-methoxypyridin-3-yl)-2,6-difluorobenzenesulfonamide], the concentration for half-maximal inhibition (IC50) amounted to 58.2 nM in experiment [1] (Table 1); 27 nM in experiment [2] (Homo sapiens, NCI-H358, 72 h); 5.8 nM in experiment [3] (Table 1).

Turning to `C=CC(=O)N1CCN(c2ncnc3ccc(-c4cnc(Cl)c(NS(=O)(=O)c5ccc(Cl)s5)c4)cc23)CC1` [Example 35, N-(5-(4-(4-acryloylpiperazin-1-yl)quinazolin-6-yl)-2-chloropyridin-3-yl)-5-chlorothiophene-2-sulfonamide], the IC50 was 117 nM in experiment [1] (Table 1); 900 nM in experiment [2] (Homo sapiens, NCI-H358, 72 h); 5.8 nM in experiment [3] (Table 1).

Regarding `COC/C=C/C(=O)N1CCN(c2ncnc3ccc(-c4cnc(OC)c(NS(=O)(=O)c5ccc(F)cc5F)c4)cc23)CC1` [Example 64, (E)-2,4-difluoro-N-(2-methoxy-5-(4-(4-(4-methoxybut-2-enoyl)piperazin-1-yl)quinazolin-6-yl)pyridin-3-yl) benzene-sulfonamide], the IC50 in experiment [1] (Table 2) was found to be 14.6 nM; in experiment [2] (Homo sapiens, NCI-H358, 72 h), 12.6 nM; in experiment [3] (Table 2), 16.7 nM.

As to `COc1ncc(-c2ccc3ncnc(N4CCC5(CC=CC5=O)CC4)c3c2)cc1NS(=O)(=O)c1c(F)cccc1F` [Example 71, 2,6-difluoro-N-(2-methoxy-5-(4-(1-oxo-8-azaspiro[4,5]dec-2-en-8-yl)quinazolin-6-yl)pyridin-3-yl)benzenesulfonamide], the IC50 in experiment [1] (Table 2) came out at 31.5 nM; in experiment [2] (Homo sapiens, NCI-H358, 72 h), 75 nM; in experiment [3] (Table 2), 2.1 nM.

As for `C=C(F)C(=O)N1CC2(CCN(c3ncnc4ccc(-c5cnc(OC)c(NS(=O)(=O)c6c(F)cccc6F)c5)cc34)C2)C1` [Example 48, 2,6-difluoro-N-(5-(4-(2-(2-fluoroacryloyl)-2,6-diazaspiro[3.4]octan-6-yl)quinazolin-6-yl)-2-methoxypyridin-3-yl) benzenesulfonamide], the IC50 in experiment [1] (Table 2) was found to be 13.2 nM; in experiment [2] (Homo sapiens, NCI-H358, 72 h), 52.6 nM; in experiment [3] (Table 2) it was 0.63 nM.
